These results are taken from paper PMC5613053 (Investigational New Drugs, 2017).

The IC50 is the concentration that gives 50% inhibition. Usually inhibition stands for the relative decrease from the control value, in per cent.

The target in one assay is T1, phosphorylated AXL (Homo sapiens, UniProt P30530).
T1 construct: expressed in transfected cells; host or cells: MV4-11-AXL cells (MV4-11 exogenously expressing AXL)
T1 sequence (P30530 26-894): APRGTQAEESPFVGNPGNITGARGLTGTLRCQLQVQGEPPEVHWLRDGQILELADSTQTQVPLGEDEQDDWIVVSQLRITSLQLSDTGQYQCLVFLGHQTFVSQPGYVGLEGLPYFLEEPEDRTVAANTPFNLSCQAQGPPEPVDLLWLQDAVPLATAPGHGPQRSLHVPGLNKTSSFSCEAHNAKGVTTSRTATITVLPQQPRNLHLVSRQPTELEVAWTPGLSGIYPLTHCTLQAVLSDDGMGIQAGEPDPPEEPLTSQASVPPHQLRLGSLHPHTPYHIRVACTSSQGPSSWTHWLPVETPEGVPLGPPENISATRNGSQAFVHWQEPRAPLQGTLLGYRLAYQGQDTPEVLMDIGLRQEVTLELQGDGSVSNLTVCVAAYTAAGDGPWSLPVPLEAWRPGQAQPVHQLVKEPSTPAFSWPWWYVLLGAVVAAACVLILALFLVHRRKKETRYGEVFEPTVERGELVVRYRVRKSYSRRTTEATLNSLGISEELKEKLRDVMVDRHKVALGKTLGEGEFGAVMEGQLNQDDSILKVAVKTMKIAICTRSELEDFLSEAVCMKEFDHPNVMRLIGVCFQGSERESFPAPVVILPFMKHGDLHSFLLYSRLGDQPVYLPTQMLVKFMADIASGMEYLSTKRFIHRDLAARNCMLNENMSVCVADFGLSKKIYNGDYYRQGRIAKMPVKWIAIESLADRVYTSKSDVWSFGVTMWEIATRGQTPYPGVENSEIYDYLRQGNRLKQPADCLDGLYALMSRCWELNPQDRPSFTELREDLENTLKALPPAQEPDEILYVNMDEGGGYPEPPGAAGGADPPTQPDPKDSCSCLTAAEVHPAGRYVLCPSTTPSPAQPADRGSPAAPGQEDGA
The assay is described as follows: Immunoblot of phospho-AXL in MV4-11-AXL cells. The class given is cell-based. The note with it: 4 h, MV4–11 cells expressing exogenous AXL. As to the method:
Cells were treated for 4 h prior to cell lysate preparation in RIPA buffer supplemented with phosphatase / protease inhibitors. The protein lysates were subsequently electrophoresed on 7.5% gels and transferred to PVDF membranes.
All membranes were blocked using either Blocking One or Blocking One-P (Nacalai Tesque Inc., Kyoto, Japan) for 1 h prior to an overnight incubation with primary antibody. Membranes were incubated overnight at 4°C with one of the following antibodies: anti-FLT3 antibody (Abcam), anti-phosphorylated pan-tyrosine, anti-ERK, anti-phospho-ERK, anti-STAT5, anti-phospho-STAT5, anti-AKT, anti-phospho-AKT, anti-AXL, anti-phospho-AXL, or anti-actin. The membranes were then washed with 1× TBS Tween-20 (TBS-T) Buffer (Thermo Fisher Scientific Inc., Rockford, IL) and incubated with an appropriate HRP-linked secondary antibody (Cell Signaling Technology) for 1 h at room temperature. After a final wash, ECL Western Blotting Detection Reagent ECL-prime (GE Healthcare, Fairfield, CT) were applied to the membranes and signals were detected with a CCD camera (ImageQuant LAS4000; GE Healthcare). Signal intensity was then quantified using ImageQuant™ TL software (GE Healthcare). The study was performed once in triplicate, and the mean percentage of phosphorylated protein to total protein relative to that in vehicle-treated cells was calculated.
Fig. S1. […] Protein lysates were collected in RIPA buffer and immunoblotting was performed to detect both phosphorylated and total levels of AXL (triplicate).
(In general: Immunoblotting shows a protein as a band on a membrane.)

Another assay concerns MV4–11 cells. Description: CellTiter-Glo cell viability. Particulars: Homo sapiens, MV4-11, 120 h; 5 days of treatment; read-out: Growth inhibition mean IC50. The class given is cell-based. As for the experimental part: A detailed protocol is provided in the online resource.
The assay was performed in either triplicate or quadruplicate. […] The geometric mean was calculated from three individual experiments.
(In general: Cellular ATP, detected with luciferase, serves as a proxy for viable cell number.)

A further assay addresses T2, LTK (Homo sapiens, UniProt P29376).
T2 construct: purchased Carna Biosciences, Inc
The assay is described as follows: Kinase inhibitory assay (TK-ELISA / off-chip MSA). The class given is biochemical. For orientation: An ELISA detects its analyte on a solid surface through an enzyme-linked reagent.

SMILES strings stand for the structures.

T2 sequence (P29376 17-864): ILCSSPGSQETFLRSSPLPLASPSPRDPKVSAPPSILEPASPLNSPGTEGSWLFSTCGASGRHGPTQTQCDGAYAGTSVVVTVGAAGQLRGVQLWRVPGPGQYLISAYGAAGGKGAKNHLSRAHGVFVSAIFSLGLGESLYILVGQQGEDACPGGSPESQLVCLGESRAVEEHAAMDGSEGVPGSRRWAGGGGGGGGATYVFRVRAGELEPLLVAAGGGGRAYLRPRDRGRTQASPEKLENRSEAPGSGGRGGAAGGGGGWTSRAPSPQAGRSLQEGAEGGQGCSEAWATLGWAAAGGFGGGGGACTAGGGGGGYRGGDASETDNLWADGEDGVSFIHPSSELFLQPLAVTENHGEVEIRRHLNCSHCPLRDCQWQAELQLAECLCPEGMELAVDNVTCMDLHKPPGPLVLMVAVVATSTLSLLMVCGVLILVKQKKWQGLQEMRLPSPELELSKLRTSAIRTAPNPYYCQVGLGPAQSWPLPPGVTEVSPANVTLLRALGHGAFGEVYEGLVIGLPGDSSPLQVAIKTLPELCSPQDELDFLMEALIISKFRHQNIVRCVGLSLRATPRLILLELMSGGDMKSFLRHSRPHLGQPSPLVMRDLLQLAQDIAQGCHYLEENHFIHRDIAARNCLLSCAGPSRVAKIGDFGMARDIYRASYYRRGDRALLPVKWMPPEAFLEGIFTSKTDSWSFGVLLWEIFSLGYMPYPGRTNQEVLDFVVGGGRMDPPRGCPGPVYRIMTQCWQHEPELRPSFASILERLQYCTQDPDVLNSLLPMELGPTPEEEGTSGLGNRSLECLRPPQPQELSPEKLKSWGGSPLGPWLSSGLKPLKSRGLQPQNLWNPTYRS
Description for LTK: These assays were conducted according to the manufacturer’s instructions. […] TK-ELISA and MSA assays were used to conduct IC50 studies for FLT3, LTK, AXL, and c-KIT; the HTRF® KinEASE™-TK assay (Sceti Medical Labo, Tokyo, Japan) was performed according to the manufacturer’s protocol to assess the IC50 value of echinoderm microtubule-associated protein-like 4-ALK (EML4-ALK; three individual experiments for each kinase).

Turning to `CCc1nc(C(N)=O)c(Nc2ccc(N3CCC(N4CCN(C)CC4)CC3)c(OC)c2)nc1NC1CCOCC1` [gilteritinib], the “Decrease of phosphorylated AXL levels” value on phosphorylated AXL (1 nM) amounted to 38%; on phosphorylated AXL (10 nM) it was 29%; at phosphorylated AXL (100 nM), 22%. Besides, the IC50 with MV4–11 cells came out at 0.92 nM; on LTK, 0.35 nM. The same compound returned an inhibition at 0.001 µM at LTK (1 nM, single experiment) of over 50%.
